This assay has as its system SW480 cells (spheroid). The experiment in a line: Matrigel spheroid growth / viability assay, SW480. The class given is cell-based. The settings on record: for effect on SW480 spheroid formation: 2-μM dose; for GI50: Homo sapiens, SW480, 168 h. As to the method: To prepare Matrigel-coated culture plates, 96-well and 24-well plates were placed on ice and coated with 25 μL or 300 μL, respectively, of Matrigel matrix (Corning, LDEV-free) that had been thawed overnight at 4° C. The plates were then placed in a 37° C. incubator for 30 min to allow the Matrigel to solidify. SW480 or HCT116 cells were suspended in spheroid culture medium (RPMI-1640 containing 20 ng/mL recombinant human epidermal growth factor (Abcam, ab9697), 20 ng/mL recombinant human fibroblast growth factor (BioVision, 4037), 5 μg/mL heparin (Sigma), 1× N-2 supplement (Thermo Fisher Scientific), 100 U/mL penicillin, and 100 μg/mL streptomycin) and then seeded into the 96-well and 24-well Matrigel-coated plates at densities of 1,000 or 5,000 cells/well and total well volumes of […] or 1 mL, respectively. Compounds were diluted in spheroid culture medium and added to the wells, and the spheroid were grown at 37° C. with 5% CO2 for 7 days.
To quantify spheroid growth at the 7-day endpoint, unstained spheroids were imaged with phase-contrast illumination using a Keyence BZ-X710 microscope. Some cultures were also stained with crystal violet to enable brightfield imaging. Briefly, the Matrigel spheroids cultures were treated with PBS containing 0.5% crystal violet and 5% methanol for 15 min at 37° C. and then gently washed 4×5 min with PBS. Spheroid sizes were quantified with ImageJ (Fiji) software using masks created with the default “Threshold” function and foreground/background adjustments to optimize masking fidelity. The full field of view was then selected for “Analyze Particles” analysis, providing numbered list of each spheroid and its area in the micrograph. In the few cases that two adjacent spheroids were treated as one object by the image processing software, their measurements were manually corrected using the “Freehand Selections” tool. To exclude background and debris from dead cells, spheroids with areas less than 500 μm^2 were excluded from the image analyses.
SW480 or HCT116 cells were seeded into regular or Matrigel-coated 96-well plates at a density of 1000 cells/well. The cells were cultured in the corresponding adherent or spheroid culture medium (200 μL/well) containing the designated compounds or an equivalent amount of DMSO vehicle. Each culture was maintained for 7 days, and then cell viabilities were measured using a CellTiter-Glo 3D Cell Viability Assay kit (Promega). Briefly, 100 μL of the culture medium was removed from each well and replaced with 100 μL 3D Cell Assay reagent. The cells in each well were next homogenized by vigorous pipetting, and the plate was incubated for 10 min at room temperature to stabilize the chemiluminescent signal. A 150-μL aliquot from each well was then transferred into a white opaque 96-well assay plate (flat-bottom and non-treated; Corning Costar) and luminescence intensities were measured with a Veritas microplate luminometer (Turner BioSystems).

Setting [1] is: Matrigel spheroid culture, 7 days, read-out: Spheroid SW480 GI50.

Read-outs that look alike come from different tables or passages of the source.

Broadly, the GI50 is the concentration at which growth is held to half of that of the control.

Consider `COc1ccccc1-n1cc(-c2ccccn2)[n+]2c1CCCCC2` [Compound 63], for which the “effect on SW480 spheroid formation” value is “did not impede the growth”.

As to `COc1ccccc1C1=CN(c2ccc(-c3ccccc3)cc2)C2=NCCCCN12` [HPI-273], under setting [1], the GI50 was 1600 nM.

`COc1ccccc1-n1cc(-c2ccc(-c3ccccc3)cc2)[n+]2c1CCCCC2` [Imidazolium 2]: the “effect on SW480 spheroid formation” value is “strongly suppressed SW480 spheroid formation”. The GI50 under setting [1] is 820 nM. For `COc1ccccc1-c1ccc(-c2cn(-c3ccccc3OC)c3[n+]2CCCCC3)cc1.[Br-]` [Imidazolium 8], in that order: “strongly suppressed SW480 spheroid formation” and 960 nM. In the case of `COc1ccccc1C1=CN(c2ccc(-c3ccccc3)cc2)C2=NCCCN12` [STL5-T-0002], for the setting “read-out: Spheroid SW480 GI50 (nM), Matrigel spheroid culture, 7 days”, the GI50 was 750 nM.

(Values after patent US12570661B2, “Isoform-specific aldehyde dehydrogenase inhibitors” (The Board of Trustees of the Leland Stanford Junior …, priority 2020, dated 2026).)
